From article PMC4996973, “Topology and structure of an engineered human cohesin complex bound to Pds5B” (Nature Communications, 2016) come the findings set out here.

In test [1] the target is T1, bonsai cohesin trimer (Smc1^B, Smc3^B, Scc1) (Homo sapiens, UniProt Q14683+Q9UQE7, Q14683:DEL201-498/Q9UQE7:DEL205-491/Q14683:DEL676-977/Q9UQE7:DEL686-956).
T1 construct: gene SMC1A; coiled coils of Smc1 and Smc3 truncated and replaced by two-residue linkers (superscript B = bonsai, not the SMC1B paralogue); Smc3^B-FLAG, Scc1-10HIS tags; co-expressed from baculovirus in Sf9; stoichiometric trimer, 222 kDa; with Double-strand-break repair protein rad21 homolog
Kind of test: differential scanning fluorimetry (thermal shift). It is filed as binding. The note with it: slowly hydrolysable ATP analogue; stabilises the complex; trimer inferred from context.

For test [2], the target named is T2, bonsai cohesin trimer (Smc1^B, Smc3^B, Scc1) (Homo sapiens, UniProt Q14683+Q9UQE7, Q9UQE7:K38A/Q14683:DEL201-498/Q9UQE7:DEL205-491/Q14683:DEL676-977/Q9UQE7:DEL686-956).
T2 construct: gene SMC1A; coiled coils of Smc1 and Smc3 truncated and replaced by two-residue linkers (superscript B = bonsai, not the SMC1B paralogue); Smc3^B-FLAG, Scc1-10HIS tags; co-expressed from baculovirus in Sf9; stoichiometric trimer, 222 kDa; with Double-strand-break repair protein rad21 homolog
Kind of test: radiolabelled ATPase assay, thin layer chromatography of released […]-Pi. It is filed as biochemical. The settings on record: labelled compound (γ-32P); ATP-binding region mutant, ATPase largely abolished.

In test [3] the target is T1, bonsai cohesin trimer (Smc1^B, Smc3^B, Scc1). Described as above. The note with it: labelled compound (γ-32P). It is filed as biochemical.
Test [4] concerns the target T3, Pds5B^10HIS (human, UniProt Q9NTI5 1-1447).
T3 construct: Pds5B, human, recombinant; printed mass 165 kDa; source: sf9 cells (baculovirus), purified (Ni-NTA; imidazole removed by dilution and concentration or by size-exclusion chromatography on Superdex 200), freeze-thawed
T3 sequence (looked up): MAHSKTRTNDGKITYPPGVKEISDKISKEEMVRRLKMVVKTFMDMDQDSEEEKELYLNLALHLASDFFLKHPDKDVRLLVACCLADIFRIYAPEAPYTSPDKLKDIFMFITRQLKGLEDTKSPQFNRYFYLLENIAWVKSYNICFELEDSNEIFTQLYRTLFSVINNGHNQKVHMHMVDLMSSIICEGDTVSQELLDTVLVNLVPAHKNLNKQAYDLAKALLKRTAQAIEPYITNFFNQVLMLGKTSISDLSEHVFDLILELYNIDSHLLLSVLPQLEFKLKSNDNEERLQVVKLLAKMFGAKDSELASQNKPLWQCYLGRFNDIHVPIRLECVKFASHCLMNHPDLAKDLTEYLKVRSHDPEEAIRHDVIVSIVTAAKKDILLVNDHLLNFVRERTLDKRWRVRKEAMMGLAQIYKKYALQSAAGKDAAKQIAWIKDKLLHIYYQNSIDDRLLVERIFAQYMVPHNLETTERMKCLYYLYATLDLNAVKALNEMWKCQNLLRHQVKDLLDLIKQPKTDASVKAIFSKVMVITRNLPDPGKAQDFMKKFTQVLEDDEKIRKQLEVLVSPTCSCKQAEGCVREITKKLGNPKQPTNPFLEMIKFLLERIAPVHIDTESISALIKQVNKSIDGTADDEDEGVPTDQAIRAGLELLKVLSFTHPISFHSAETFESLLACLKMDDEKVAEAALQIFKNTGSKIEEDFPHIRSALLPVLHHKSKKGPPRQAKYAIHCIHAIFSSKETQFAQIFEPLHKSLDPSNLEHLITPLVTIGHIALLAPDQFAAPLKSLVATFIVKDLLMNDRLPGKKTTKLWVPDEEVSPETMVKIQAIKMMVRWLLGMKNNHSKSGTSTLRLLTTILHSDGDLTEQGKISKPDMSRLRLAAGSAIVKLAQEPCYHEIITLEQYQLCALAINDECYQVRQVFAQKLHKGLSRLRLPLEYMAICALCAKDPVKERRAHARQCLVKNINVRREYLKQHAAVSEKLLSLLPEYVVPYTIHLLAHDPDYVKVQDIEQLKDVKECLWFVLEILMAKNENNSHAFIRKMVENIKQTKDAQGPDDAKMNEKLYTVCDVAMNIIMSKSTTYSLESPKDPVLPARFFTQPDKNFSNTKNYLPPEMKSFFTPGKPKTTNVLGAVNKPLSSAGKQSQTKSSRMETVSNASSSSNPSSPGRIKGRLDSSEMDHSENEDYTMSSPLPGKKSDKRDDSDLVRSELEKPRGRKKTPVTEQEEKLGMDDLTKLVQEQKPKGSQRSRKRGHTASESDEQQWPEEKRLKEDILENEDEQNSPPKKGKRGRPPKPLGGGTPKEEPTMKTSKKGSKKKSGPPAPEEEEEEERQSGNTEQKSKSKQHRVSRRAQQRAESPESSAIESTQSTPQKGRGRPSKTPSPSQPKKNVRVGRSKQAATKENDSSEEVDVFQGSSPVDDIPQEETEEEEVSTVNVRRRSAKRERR
As to the kind of experiment: cross-linking; chemical crosslinking followed by mass spectrometry of purified bonsai cohesin (co-expressed subunits) bound to Pds5B; 102 inter- and 244 intramolecular crosslinks; details in the Supplementary Methods. The note with it: both partners purified.

Test [5] deals with T3, Pds5B^10HIS. Kind of test: negative staining EM, single-particle 3D reconstruction; GraFix-prepared complexes (0.1% glutaraldehyde gradient, ATPγS), uranyl formate stain; 3D models at 28-35 Å; densities assigned by difference maps. The note with it: both partners purified.

As to `Nc1ncnc2c1ncn2[C@@H]1O[C@H](COP(=O)(O)OP(=O)(O)OP(O)(O)=S)[C@@H](O)[C@H]1O` [ATPγS], the “differential scanning fluorimetry (thermal shift)” value in test [1] is given as “presence of the slowly hydrolyzable ATP-analogue ATPyS, as well as a near physiological pH improved the stability”.

For `Nc1ncnc2c1ncn2[C@@H]1O[C@H](COP(=O)(O)OP(=O)(O)OP(=O)(O)O)[C@@H](O)[C@H]1O` [ATP], the “radiolabelled ATPase assay, thin layer chromatography of released 32P-Pi” value in test [2] is on record as “The single point mutation largely abolished bonsai cohesin's ATPase activity”; in test [3] it was “Bonsai trimers containing wild-type NBDs ... were able to hydrolyse ATP”.

B1: SA1 (natural protein, human, UniProt Q8WVM7 1-1258, looked up)
chain: MITSELPVLQDSTNETTAHSDAGSELEETEVKGKRKRGRPGRPPSTNKKPRKSPGEKSRIEAGIRGAGRGRANGHPQQNGEGEPVTLFEVVKLGKSAMQSVVDDWIESYKQDRDIALLDLINFFIQCSGCRGTVRIEMFRNMQNAEIIRKMTEEFDEDSGDYPLTMPGPQWKKFRSNFCEFIGVLIRQCQYSIIYDEYMMDTVISLLTGLSDSQVRAFRHTSTLAAMKLMTALVNVALNLSIHQDNTQRQYEAERNKMIGKRANERLELLLQKRKELQENQDEIENMMNSIFKGIFVHRYRDAIAEIRAICIEEIGVWMKMYSDAFLNDSYLKYVGWTLHDRQGEVRLKCLKALQSLYTNRELFPKLELFTNRFKDRIVSMTLDKEYDVAVEAIRLVTLILHGSEEALSNEDCENVYHLVYSAHRPVAVAAGEFLHKKLFSRHDPQAEEALAKRRGRNSPNGNLIRMLVLFFLESELHEHAAYLVDSLWESSQELLKDWECMTELLLEEPVQGEEAMSDRQESALIELMVCTIRQAAEAHPPVGRGTGKRVLTAKERKTQIDDRNKLTEHFIITLPMLLSKYSADAEKVANLLQIPQYFDLEIYSTGRMEKHLDALLKQIKFVVEKHVESDVLEACSKTYSILCSEEYTIQNRVDIARSQLIDEFVDRFNHSVEDLLQEGEEADDDDIYNVLSTLKRLTSFHNAHDLTKWDLFGNCYRLLKTGIEHGAMPEQIVVQALQCSHYSILWQLVKITDGSPSKEDLLVLRKTVKSFLAVCQQCLSNVNTPVKEQAFMLLCDLLMIFSHQLMTGGREGLQPLVFNPDTGLQSELLSFVMDHVFIDQDEENQSMEGDEEDEANKIEALHKRRNLLAAFSKLIIYDIVDMHAAADIFKHYMKYYNDYGDIIKETLSKTRQIDKIQCAKTLILSLQQLFNELVQEQGPNLDRTSAHVSGIKELARRFALTFGLDQIKTREAVATLHKDGIEFAFKYQNQKGQEYPPPNLAFLEVLSEFSSKLLRQDKKTVHSYLEKFLTEQMMERREDVWLPLISYRNSLVTGGEDDRMSVNSGSSSSKTSSVRNKKGRPPLHKKRVEDESLDNTWLNRTDTMIQTPGPLPAPQLTSTVLRENSRPMGDQIQEPESEHGSEPDFLHNPQMQISWLGQPKLEDLNRKDRTGMNYMKVRTGVRHAVRGLMEEDAEPIFEDVMMSSRSQLEDMNEEFEDTMVIDLPPSRNRRERAELRPDFFDSAAIIEDDSGFGMPMF
notes: SA1, human (146 kDa printed)
For the molecule B1, the binding result with Pds5B^10HIS [4] is listed as “binds”.

B2: Scc1^10HIS (natural protein, human, UniProt O60216 1-631, looked up)
chain: MFYAHFVLSKRGPLAKIWLAAHWDKKLTKAHVFECNLESSVESIISPKVKMALRTSGHLLLGVVRIYHRKAKYLLADCNEAFIKIKMAFRPGVVDLPEENREAAYNAITLPEEFHDFDQPLPDLDDIDVAQQFSLNQSRVEEITMREEVGNISILQENDFGDFGMDDREIMREGSAFEDDDMLVSTTTSNLLLESEQSTSNLNEKINHLEYEDQYKDDNFGEGNDGGILDDKLISNNDGGIFDDPPALSEAGVMLPEQPAHDDMDEDDNVSMGGPDSPDSVDPVEPMPTMTDQTTLVPNEEEAFALEPIDITVKETKAKRKRKLIVDSVKELDSKTIRAQLSDYSDIVTTLDLAPPTKKLMMWKETGGVEKLFSLPAQPLWNNRLLKLFTRCLTPLVPEDLRKRRKGGEADNLDEFLKEFENPEVPREDQQQQHQQRDVIDEPIIEEPSRLQESVMEASRTNIDESAMPPPPPQGVKRKAGQIDPEPVMPPQQVEQMEIPPVELPPEEPPNICQLIPELELLPEKEKEKEKEKEDDEEEEDEDASGGDQDQEERRWNKRTQQMLHGLQRALAKTGAESISLLELCRNTNRKQAAAKFYSFLVLKKQQAIELTQEEPYSDIIATPGPRFHII
notes: Scc1 (Rad21, Mcd1), human; also called Rad21; Mcd1
Regarding B2, the binding result in the test with Pds5B^10HIS [5] is “binds”.
